Source: US9050341B2, “Methods of treating drug resistant and other tumors by administering 6,7-dialkoxy quinazoline derivatives” (NATCO PHARMA LIMITED, priority 2009, dated 2015)

Legend:
Test in all cases: KinomeScan kinase profiling
Assay type in all cases: binding
[1] = molecular target: T1, BMPR2 (Homo sapiens, UniProt Q13873)
T1 construct: purchased Ambit Biosciences Corp (KinomeScan); host or cells: E. coli host derived from the BL21 strain, T7 phage
Method in brief: (§1)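 Kinases were expressed as T7 phage fusions in a BL21-derived E. coli host and the cleared lysates were used. Ligand beads were blocked with biotin and buffer (1% BSA, 0.05% Tween 20, 1 mM DTT). Compounds came from 40× DMSO stocks, and phage in the eluates was titred by qPCR.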

[2] = molecular target: T2, CAMK1 (Homo sapiens, UniProt Q14012)
T2 construct: purchased Ambit Biosciences Corp (KinomeScan); host or cells: E. coli host derived from the BL21 strain, T7 phage
Method in brief: as §1

[3] = molecular target: T3, CDK11 (Homo sapiens, UniProt Q9BWU1)
T3 construct: host or cells: T7 phage in E. coli (BL21-derived)
Method in brief: as §1

[4] = molecular target: T4, DAPK2 (Homo sapiens, UniProt Q9UIK4)
T4 construct: purchased Ambit Biosciences Corp (KinomeScan); host or cells: T7 phage in E. coli host derived from BL21
Method in brief: as §1

[5] = molecular target: T5, DCAMKL3 (Homo sapiens, UniProt Q9C098)
T5 construct: purchased Ambit Biosciences Corp (KinomeScan); host or cells: T7 phage in E. coli host derived from BL21
Method in brief: as §1

[6] = molecular target: T6, DRAK1 (Homo sapiens, UniProt Q9UEE5)
T6 construct: purchased Ambit Biosciences Corp (KinomeScan); host or cells: T7 phage in E. coli host derived from BL21
Method in brief: as §1

[7] = molecular target: T7, EGFR (L747-T751del, Sins) (Homo sapiens, UniProt P00533, DEL747-750/T751S)
T7 construct: host or cells: E. coli host derived from BL21, T7 phage lysate
Method in brief: as §1

[8] = molecular target: T8, EPHA8 (Homo sapiens, UniProt P29322)
T8 construct: host or cells: E. coli host derived from BL21, T7 phage lysate
Method in brief: as §1

[9] = molecular target: T9, ERK5 (Homo sapiens, UniProt Q13164)
T9 construct: host or cells: E. coli host derived from BL21, T7 phage lysate
Method in brief: as §1

[10] = molecular target: T10, IGF1R (Homo sapiens, UniProt P08069)
T10 construct: host or cells: T7 phage in E. coli host derived from BL21
Method in brief: as §1

[11] = molecular target: T11, JAK1 (JH1domain-catalytic) (Homo sapiens, UniProt P23458)
T11 construct: JAK1 (JH1domain-catalytic); host or cells: T7 phage in E. coli host derived from BL21
Method in brief: as §1

[12] = molecular target: T12, LATS1 (Homo sapiens, UniProt O95835)
T12 construct: host or cells: T7 phage in E. coli host derived from BL21
Method in brief: as §1

[13] = molecular target: T13, MAP3K3 (Homo sapiens, UniProt Q99759)
T13 construct: host or cells: E. coli derived from BL21, infected with T7 phage
Method in brief: as §1

[14] = molecular target: T14, MEK4 (Homo sapiens, UniProt P45985)
T14 construct: host or cells: E. coli derived from BL21, infected with T7 phage
Method in brief: as §1

[15] = molecular target: T15, PRKD3 (Homo sapiens, UniProt O94806)
T15 construct: purchased Ambit Biosciences Corp (KinomeScan); host or cells: E. coli host derived from BL21, infected with T7 phage
Method in brief: as §1

[16] = molecular target: T16, PRKG2 (Homo sapiens, UniProt Q13237)
T16 construct: purchased Ambit Biosciences Corp (KinomeScan); host or cells: E. coli host derived from BL21, infected with T7 phage
Method in brief: as §1

[17] = molecular target: T17, RET (V804L) (Homo sapiens, UniProt P07949, V804L)
T17 construct: host or cells: E. coli host derived from BL21, T7 phage lysate
Method in brief: as §1

[18] = molecular target: T18, TYK2 (JH1domain-catalytic) (Homo sapiens, UniProt P29597)
T18 construct: TYK2 (JH1domain-catalytic); purchased Ambit Biosciences Corp (KinomeScan); host or cells: E. coli host derived from the BL21 strain (T7 phage lysate)
Method in brief: as §1

[19] = molecular target: T19, TYK2 (JH2domain-pseudokinase) (Homo sapiens, UniProt P29597)
T19 construct: TYK2 (JH2domain-pseudokinase); purchased Ambit Biosciences Corp (KinomeScan); host or cells: E. coli host derived from the BL21 strain (T7 phage lysate)
Method in brief: as §1

[20] = molecular target: T20, TYRO3 (Homo sapiens, UniProt Q06418)
T20 construct: purchased Ambit Biosciences Corp (KinomeScan); host or cells: E. coli host derived from the BL21 strain (T7 phage lysate)
Method in brief: as §1

[21] = molecular target: T21, p38-alpha (Homo sapiens, UniProt Q16539)
T21 construct: host or cells: E. coli host derived from the BL21 strain, infected with T7 phage
Method in brief: as §1

T20 sequence (Q06418 41-890): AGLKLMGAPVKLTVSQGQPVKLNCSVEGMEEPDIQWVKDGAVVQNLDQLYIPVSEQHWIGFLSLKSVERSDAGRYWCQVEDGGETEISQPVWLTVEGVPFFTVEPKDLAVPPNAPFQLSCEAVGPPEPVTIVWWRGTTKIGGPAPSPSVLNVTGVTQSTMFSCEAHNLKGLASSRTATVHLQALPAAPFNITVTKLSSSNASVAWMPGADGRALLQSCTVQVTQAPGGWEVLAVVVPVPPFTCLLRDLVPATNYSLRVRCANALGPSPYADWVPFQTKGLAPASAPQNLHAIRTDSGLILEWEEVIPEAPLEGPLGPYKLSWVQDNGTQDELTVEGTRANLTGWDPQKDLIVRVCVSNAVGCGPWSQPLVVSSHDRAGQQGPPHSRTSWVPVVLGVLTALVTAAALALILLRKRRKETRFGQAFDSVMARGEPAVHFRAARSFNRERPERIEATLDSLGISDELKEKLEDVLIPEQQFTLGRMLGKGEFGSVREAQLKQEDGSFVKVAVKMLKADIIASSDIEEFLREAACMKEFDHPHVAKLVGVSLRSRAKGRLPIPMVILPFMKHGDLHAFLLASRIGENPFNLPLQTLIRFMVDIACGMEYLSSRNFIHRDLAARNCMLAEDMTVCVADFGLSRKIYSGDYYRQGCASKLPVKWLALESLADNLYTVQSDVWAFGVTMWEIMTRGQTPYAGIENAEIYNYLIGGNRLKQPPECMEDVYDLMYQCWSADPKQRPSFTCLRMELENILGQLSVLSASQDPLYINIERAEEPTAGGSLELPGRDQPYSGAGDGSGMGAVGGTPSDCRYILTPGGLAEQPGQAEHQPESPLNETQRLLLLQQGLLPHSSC
T5 sequence (Q9C098 whole entry): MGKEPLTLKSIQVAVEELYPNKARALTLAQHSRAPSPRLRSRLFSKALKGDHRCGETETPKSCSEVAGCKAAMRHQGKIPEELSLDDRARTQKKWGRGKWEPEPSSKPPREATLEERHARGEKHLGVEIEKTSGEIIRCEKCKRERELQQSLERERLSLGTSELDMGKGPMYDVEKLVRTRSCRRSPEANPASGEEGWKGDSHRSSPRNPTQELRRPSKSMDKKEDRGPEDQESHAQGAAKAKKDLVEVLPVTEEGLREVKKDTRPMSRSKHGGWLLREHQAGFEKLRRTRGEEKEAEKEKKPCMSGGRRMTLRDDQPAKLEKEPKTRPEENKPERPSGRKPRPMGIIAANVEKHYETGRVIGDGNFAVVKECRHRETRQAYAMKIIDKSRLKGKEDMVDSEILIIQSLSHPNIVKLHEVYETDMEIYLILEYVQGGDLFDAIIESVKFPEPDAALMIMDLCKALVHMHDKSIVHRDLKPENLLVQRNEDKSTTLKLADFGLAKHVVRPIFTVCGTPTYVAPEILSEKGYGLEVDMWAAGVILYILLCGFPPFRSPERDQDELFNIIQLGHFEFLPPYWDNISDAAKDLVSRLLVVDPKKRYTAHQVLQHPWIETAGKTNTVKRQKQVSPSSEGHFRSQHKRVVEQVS
T6 sequence (Q9UEE5 whole entry): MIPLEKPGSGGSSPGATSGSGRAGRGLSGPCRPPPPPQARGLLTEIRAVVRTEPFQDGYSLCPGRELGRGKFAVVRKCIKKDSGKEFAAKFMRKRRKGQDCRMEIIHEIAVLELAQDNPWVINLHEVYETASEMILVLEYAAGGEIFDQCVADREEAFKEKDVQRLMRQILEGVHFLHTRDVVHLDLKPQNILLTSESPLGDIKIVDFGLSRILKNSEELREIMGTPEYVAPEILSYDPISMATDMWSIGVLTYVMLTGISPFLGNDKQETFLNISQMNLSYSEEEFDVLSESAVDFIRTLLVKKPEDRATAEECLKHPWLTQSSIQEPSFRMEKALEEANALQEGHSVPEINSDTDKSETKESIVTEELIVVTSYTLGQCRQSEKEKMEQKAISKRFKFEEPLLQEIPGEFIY
T10 sequence (P08069 31-1367): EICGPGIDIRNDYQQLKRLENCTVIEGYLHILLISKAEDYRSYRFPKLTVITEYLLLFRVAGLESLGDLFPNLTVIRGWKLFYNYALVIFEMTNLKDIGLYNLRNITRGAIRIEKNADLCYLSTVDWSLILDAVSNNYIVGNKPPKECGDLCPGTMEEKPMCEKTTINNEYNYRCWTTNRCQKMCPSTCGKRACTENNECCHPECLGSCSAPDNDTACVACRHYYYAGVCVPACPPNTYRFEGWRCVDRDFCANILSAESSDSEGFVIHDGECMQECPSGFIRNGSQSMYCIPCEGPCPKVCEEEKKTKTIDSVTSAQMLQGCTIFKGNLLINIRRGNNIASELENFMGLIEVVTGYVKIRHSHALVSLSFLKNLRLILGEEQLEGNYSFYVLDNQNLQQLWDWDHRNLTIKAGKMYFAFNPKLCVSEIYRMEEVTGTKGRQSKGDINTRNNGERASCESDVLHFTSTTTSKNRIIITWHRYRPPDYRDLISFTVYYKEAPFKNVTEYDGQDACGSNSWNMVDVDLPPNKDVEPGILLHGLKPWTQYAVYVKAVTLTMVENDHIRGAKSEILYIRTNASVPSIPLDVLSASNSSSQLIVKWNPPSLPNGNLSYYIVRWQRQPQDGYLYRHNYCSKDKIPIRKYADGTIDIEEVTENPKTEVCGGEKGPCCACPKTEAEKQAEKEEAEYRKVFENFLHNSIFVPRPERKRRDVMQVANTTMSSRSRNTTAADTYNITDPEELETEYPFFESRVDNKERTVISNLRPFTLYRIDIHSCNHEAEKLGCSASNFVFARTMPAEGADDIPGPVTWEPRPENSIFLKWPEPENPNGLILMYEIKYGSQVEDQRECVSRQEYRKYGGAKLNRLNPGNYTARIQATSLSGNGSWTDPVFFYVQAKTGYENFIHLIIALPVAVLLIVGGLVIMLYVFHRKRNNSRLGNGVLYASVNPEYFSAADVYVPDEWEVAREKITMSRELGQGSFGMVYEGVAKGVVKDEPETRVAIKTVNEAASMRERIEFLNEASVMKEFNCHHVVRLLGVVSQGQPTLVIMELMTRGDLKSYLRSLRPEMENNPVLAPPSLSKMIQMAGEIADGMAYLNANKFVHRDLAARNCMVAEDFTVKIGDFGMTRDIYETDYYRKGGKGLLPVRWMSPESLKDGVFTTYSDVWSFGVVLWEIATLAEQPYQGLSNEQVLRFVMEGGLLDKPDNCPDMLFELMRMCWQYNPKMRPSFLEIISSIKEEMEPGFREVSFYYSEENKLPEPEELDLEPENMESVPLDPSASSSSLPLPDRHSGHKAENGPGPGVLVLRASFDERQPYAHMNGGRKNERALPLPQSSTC
T13 sequence (Q99759 whole entry): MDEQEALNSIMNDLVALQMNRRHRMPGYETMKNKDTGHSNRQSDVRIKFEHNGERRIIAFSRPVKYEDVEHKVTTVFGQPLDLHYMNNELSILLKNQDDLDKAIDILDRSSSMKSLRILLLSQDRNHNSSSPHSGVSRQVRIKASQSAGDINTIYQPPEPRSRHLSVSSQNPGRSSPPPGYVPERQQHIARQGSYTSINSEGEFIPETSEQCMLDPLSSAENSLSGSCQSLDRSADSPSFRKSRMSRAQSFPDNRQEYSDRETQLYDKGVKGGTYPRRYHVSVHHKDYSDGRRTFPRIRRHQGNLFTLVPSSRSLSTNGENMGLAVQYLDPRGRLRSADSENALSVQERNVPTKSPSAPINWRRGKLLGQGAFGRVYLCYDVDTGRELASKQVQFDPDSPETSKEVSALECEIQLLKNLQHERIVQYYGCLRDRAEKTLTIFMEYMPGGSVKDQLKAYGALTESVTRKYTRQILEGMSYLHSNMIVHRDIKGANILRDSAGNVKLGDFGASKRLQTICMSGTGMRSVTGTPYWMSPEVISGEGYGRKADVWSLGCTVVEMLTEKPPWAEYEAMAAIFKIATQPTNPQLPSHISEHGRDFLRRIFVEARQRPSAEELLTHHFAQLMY
T9 sequence (Q13164 whole entry): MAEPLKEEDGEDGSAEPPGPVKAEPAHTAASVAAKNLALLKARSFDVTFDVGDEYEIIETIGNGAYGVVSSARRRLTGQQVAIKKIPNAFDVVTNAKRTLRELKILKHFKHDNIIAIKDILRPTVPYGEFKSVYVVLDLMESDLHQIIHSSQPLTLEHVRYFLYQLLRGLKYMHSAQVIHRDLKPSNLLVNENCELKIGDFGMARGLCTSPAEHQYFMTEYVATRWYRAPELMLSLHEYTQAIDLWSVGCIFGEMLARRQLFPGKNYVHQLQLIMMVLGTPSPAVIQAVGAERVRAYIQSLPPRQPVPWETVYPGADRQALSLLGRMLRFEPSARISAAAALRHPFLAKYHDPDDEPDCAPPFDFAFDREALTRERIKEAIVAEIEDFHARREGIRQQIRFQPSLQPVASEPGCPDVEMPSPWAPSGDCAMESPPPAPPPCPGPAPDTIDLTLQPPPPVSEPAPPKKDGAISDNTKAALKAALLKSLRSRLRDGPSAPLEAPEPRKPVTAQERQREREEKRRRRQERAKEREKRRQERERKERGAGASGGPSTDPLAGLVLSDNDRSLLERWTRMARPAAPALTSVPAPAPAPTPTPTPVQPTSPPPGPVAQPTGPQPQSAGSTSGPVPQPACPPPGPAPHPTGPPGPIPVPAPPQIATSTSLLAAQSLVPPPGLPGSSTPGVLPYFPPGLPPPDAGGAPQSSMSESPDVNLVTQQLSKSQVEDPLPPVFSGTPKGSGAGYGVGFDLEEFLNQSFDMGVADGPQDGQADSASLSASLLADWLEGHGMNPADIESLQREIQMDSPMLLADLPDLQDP
T19 sequence (P29597 589-875 limits assumed): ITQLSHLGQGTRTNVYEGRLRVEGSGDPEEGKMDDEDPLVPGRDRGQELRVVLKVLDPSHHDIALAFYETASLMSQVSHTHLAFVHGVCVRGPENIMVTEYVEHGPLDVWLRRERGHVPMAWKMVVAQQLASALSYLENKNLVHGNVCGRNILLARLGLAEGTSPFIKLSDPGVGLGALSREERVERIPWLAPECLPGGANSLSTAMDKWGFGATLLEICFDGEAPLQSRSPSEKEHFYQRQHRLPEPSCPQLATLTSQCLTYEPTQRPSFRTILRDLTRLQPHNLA

In the case of `C#Cc1cccc(Nc2ncnc3cc(OC)c(OCCCN4CCOCC4)cc23)c1` [NRC-2694, N-(3-ethylnylphenyl)-7-methoxy-6-[3-(4-morpholinyl)propoxy]-4-quinazolinamine], the “% Ctrl @ 10000 nM” value [1] is reported as 100 % Ctrl, the “% Ctrl @ 10000 nM” value [2] is reported as 65 % Ctrl and the “% Ctrl @ 10000 nM” value [3] is reported as 87 % Ctrl. For the same compound, the “% Ctrl @ 10000 nM” value [4] was 61 % Ctrl, the “% Ctrl @ 10000 nM” value [5] was 14 % Ctrl and the “% Ctrl @ 10000 nM” value [6] was 51 % Ctrl. For the same compound, the “% Ctrl @ 10000 nM” value [7] was 0 % Ctrl, the “% Ctrl @ 10000 nM” value [8] was 66 % Ctrl and the “% Ctrl @ 10000 nM” value [9] was 90 % Ctrl. The “% Ctrl @ 10000 nM” value [10] was 74 % Ctrl, the “% Ctrl @ 10000 nM” value [11] was 15 % Ctrl and the “% Ctrl @ 10000 nM” value [12] was 91 % Ctrl. The “% Ctrl @ 10000 nM” value [13] was 5.9 % Ctrl, the “% Ctrl @ 10000 nM” value [14] was 92 % Ctrl and the “% Ctrl @ 10000 nM” value [15] was 7.2 % Ctrl. The “% Ctrl @ 10000 nM” value [16] was 40 % Ctrl, the “% Ctrl @ 10000 nM” value [17] was 81 % Ctrl and the “% Ctrl @ 10000 nM” value [18] was 97 % Ctrl. For the same compound, the “% Ctrl @ 10000 nM” value [19] was 23 % Ctrl, the “% Ctrl @ 10000 nM” value [20] was 42 % Ctrl and the “% Ctrl @ 10000 nM” value [21] was 89 % Ctrl.
